What was measured:
Format in all cases: cell-based
[1] = tested on: human uroepithelial cells
[2] = tested on: human uroepithelial cells; remark: listed apart in the source
[3] = tested on: human uroepithelial cells; remark: listed apart in the source

Molecule: OCc1ccccc1 [Benzyl Alcohol]
- Typical Results [1]: Slight Increase (1% at 2

Molecule: CCOCCOCCO [Diethylene glycol mono-ethyl ether]
- Typical Results [1]: No Effect

Molecule: O=C(O)CN(CCN(CC(=O)O)CC(=O)O)CC(=O)O [EDTA]
- Typical Results [1]: Increase
- penetration of fluorescent gelatin, RFU relative to untreated control [2]: 300%

Molecule: CCCCCCCC/C=C\CCCCCCCC(=O)OCCOCC(OCCO)C1OCC(OCCO)C1OCCO (stereo not shown) [Tween 80]
- Typical Results [1]: Increase (Dose response)

Molecule: Benzalkonium bromide
- Typical Results [1]: No Effect

Molecule: Nonoxynol 9
- Typical Results [1]: Increase (Dose response)
- increase vs saline in the amount of BoNT/A that permeated the in vitro urothelium [3]: 3 fold

Molecule: Poly-L-Arginine
- Typical Results [1]: Inhibited

Molecule: Poly-L-lysine Hydrobromide
- Typical Results [1]: Increase (Dose response)

Molecule: Protamine sulfate
- Typical Results [1]: Inhibited

Molecule: octyl phenol ethoxylate [Triton-X100]
- Typical Results [1]: Increase (Dose response)
- increase vs saline in the amount of BoNT/A that permeated the in vitro urothelium [3]: 3.6 fold

— patent US9943576B2 (priority 2014, dated 2018)
